Data on 1 substance can be found in patent US20060270618A1, “Novel pharmaceutical composition of interferon gamma or pirfenidone with molecular diagnostics for the improved treatment of interstitial lung diseases” (priority 2001, published 2006).

The test system of test [1] is patients suffering from severe interstitial lung disease (ILD). Put plainly: Therapy of ILD/IPF patients: gene expression analysis followed by interferon gamma. In kind it is in vivo, human. The text has this: Biopsies were taken from patients suffering from severe interstitial lung disease (ILD), after […] was given, using the surgical method of bronchoscopy. Obtained tissue probes were stored and processed for isolation of total RNA in RNAlater™ (patent pending), an aqueous, non-toxic tissue storage reagent that stabilizes and protects cellular RNA in intact, unfrozen tissue samples.
Analysis of Infectious agents in biopsies. As patients with ILD repeatedly suffer from inflammations, biopsied material was tested for the presence of infectious agents. Most dominant was the observation of underlying Herpes virus infections (treated with Ganciclovir) and various bacterial infections (treated with various antibiotics), or few fungal infections.
Therapy. Therapy with interferon gamma was only started after successful pretreatment of the underlying infections and the assessment of the gene expression of the endogenous disease signiture genes.

Test [2] concerns patient with histologically proven UIP. Put plainly: Single patient with histologically proven UIP, CMV pretreatment then interferon gamma (FIG. 1). In kind it is in vivo, human. The note with it: failure of immunosuppressive treatment, gene transcription analysis. The text has this: FIG. 1: FIG. 1 depicts the total lung capacity (TLC), the partial pressure of arterial oxygen (PaO2), and the forced vital capacity (FVC) of a patient with histologically proven UIP (open lung biopsy) and failure of immunosuppressive treatment treated with interferon gamma. FIG. 1b) depicts the total lung capacity (TLC), the partial pressure of arterial oxygen (PaO2), and the forced vital capacity (FVC) of the same patient with histologically proven UIP (open lung biopsy) and failure of immunosuppressive treatment between time #l and time #2.

The test system of test [3] is bleomycin-induced lung collagen fibrosis. The following applies: bleomycin mice; cited from earlier work.
For another test, the system named is TGF-β1. The following applies: after six months of therapy; cited from earlier work.
The next test concerns CTGF. The following applies: after six months of therapy; cited from earlier work.
In test [4] the test system is individuals suffering from IPF. The following applies: cited from earlier work.
The mark [5] stands for this setting: after pretreatment of infections and gene expression analysis.

For “interferon gamma [naturally occurring glycoprotein cytokine, molecular weight about 17.000, also produced by recombinant techniques]”, in test [1] (setting [5]), the physical exertion capacity entry is reported as “substantial increase” and the total lung capacity result is recorded as “statistically highly significant increase”. Moreover, the “partial pressure of arterial oxygen” value in test [1] (at rest) is reported as “statistically significant increased”. For the same substance, the “effectiveness in the combination therapy” value in test [1] (dose of 1.0-5.0 μg/kg body weight, 1-5 times per week, parenteral) is “effective”. Further, in test [1] (human, in vivo), the disease symptoms result was “strong decrease”. Moreover, the survival benefit result in test [1] (patients with IPF) is “significant survival benefit”. In test [2], the “clinical outcome of the patient” value is given as “stabilization of the patient”. In test [3], the amount of fibrosis entry is reported as “reduction in the amount of fibrosis” and the “expression of TGF-β1” value is “reduced expression”. Moreover, the “transcription of TGF-β1” value in the test with TGF-β1 was “significantly diminished”. In addition, the “transcription of CTGF” value in the test on CTGF is given as “significantly diminished”. Besides, the lung function result in test [4] is “improvement of lung function”.
